Experimental data published in ChEMBL document CHEMBL3714766, “Tetrahydroisoquinoline compounds and their use as pyruvate dehydrogenase kinase inhibitors” (2015).

Experiments:
[1] = biological target: T1, Pyruvate dehydrogenase kinase (Homo sapiens, UniProt Q15119+Q15120+Q16654+Q15118); assay: Binding affinity to pyruvate dehydrogenase kinase (unknown origin) by VER-00160364 probe based fluorescence polarization assay
[2] = biological target: T1, Pyruvate dehydrogenase kinase; assay: Inhibition of pyruvate dehydrogenase kinase in human PC3 cells incubated for 90 mins by phospho(Ser293)E1alpha MSP ELISA method; type: cell-based; settings: pc-3
[3] = biological target: T1, Pyruvate dehydrogenase kinase; assay: Inhibition of pyruvate dehydrogenase kinase (unknown origin) assessed as reduction in E1 phosphorylation incubated for 1 hr by DELFIA method; type: protein assay

COc1cnc(Cl)nc1-c1ccc2c(c1)CC[C@H](C)N2C(=O)c1ccc(O)cc1O
IC50 [1]: 100 nM
IC50 [2]: 1 µM

Cc1cc(S(=O)(=O)NCc2ccccc2)cnc1-c1ccc2c(c1)CCC(c1cccnc1)N2C(=O)c1ccc(O)cc1O (stereo not given)
IC50 [3]: 10 nM

C[C@H]1CCc2cc(-c3nc(Cl)nc4c3ccn4C)ccc2N1C(=O)c1ccc(O)cc1O
IC50 [1]: 1000 nM
IC50 [2]: 1 µM

Cc1cnc(C)c(-c2ccc3c(c2)CCC(c2cccnc2)N3C(=O)c2ccc(O)cc2O)n1 (stereo not given)
IC50 [1]: 10 nM

COc1cnc(Cl)nc1-c1ccc2c(c1)CCC(c1cccnc1)N2C(=O)c1ccc(O)cc1O (stereo not given)
IC50 [1]: 1000 nM

COCCN(C)S(=O)(=O)c1cnc(-c2ccc3c(c2)CC[C@H](C)N3C(=O)c2ccc(O)cc2O)c(C)c1
IC50 [1]: 100 nM

C[C@H]1CCc2cc(-c3ncnc4ccsc34)ccc2N1C(=O)c1ccc(O)cc1O
IC50 [1]: 100 nM
IC50 [2]: 1 µM

CC1CCc2cc(F)ccc2N1C(=O)c1ccc(O)cc1O (stereo not given)
IC50 [1]: 100 nM

Cc1cnc(Cl)nc1-c1ccc2c(c1)CC[C@H](C)C2C(=O)c1ccc(O)cc1O (stereo not given in full)
IC50 [1]: 10 nM

Cc1cc(S(=O)(=O)NCc2cccnc2)cnc1-c1ccc2c(c1)CC[C@H](C)N2C(=O)c1ccc(O)cc1O
IC50 [1]: 10 nM

CC1CCc2cc(Br)ccc2N1C(=O)c1ccc(O)cc1O (stereo not given)
IC50 [1]: 1000 nM

Nc1ccc2c(c1)CCCN2C(=O)c1ccc(O)cc1O
IC50 [1]: 100 nM

Cc1cc(S(=O)(=O)N2CCOCC2)cnc1-c1ccc2c(c1)CC[C@H](C)N2C(=O)c1ccc(O)cc1O
IC50 [1]: 10 nM

Cc1cc(S(=O)(=O)N2CCC(F)(F)CC2)cnc1-c1ccc2c(c1)CCC(c1cccnc1)N2C(=O)c1ccc(O)cc1O (stereo not given)
IC50 [3]: 10 nM

Cc1cc(S(=O)(=O)NCCCC(N)=O)cnc1-c1ccc2c(c1)CC[C@H](C)N2C(=O)c1ccc(O)cc1O
IC50 [1]: 10 nM

C[C@@H]1CCc2cc(F)ccc2N1C(=O)c1cc(Cl)c(O)cc1O
IC50 [1]: 10000 nM

Cc1cc(S(=O)(=O)N2CC(F)(F)C2)cnc1-c1ccc2c(c1)CC[C@H](C)N2C(=O)c1ccc(O)cc1O
IC50 [1]: 10 nM

CC(=O)NCCNS(=O)(=O)c1cnc(-c2ccc3c(c2)CC[C@H](C)N3C(=O)c2ccc(O)cc2O)c(C)c1
IC50 [1]: 10 nM

C[C@H]1CCc2cc(F)ccc2N1C(=O)c1ccc(O)cc1O
IC50 [1]: 100 nM

C[C@H]1CCc2cc(-c3nc(Cl)nc4[nH]ccc34)ccc2N1C(=O)c1ccc(O)cc1O
IC50 [1]: 1000 nM
IC50 [2]: 1 µM

Cc1cc(S(=O)(=O)N2CCOCC2)cnc1-c1ccc2c(c1)CCC(c1cccnc1)N2C(=O)c1ccc(O)cc1O (stereo not given)
IC50 [1]: 10 nM

Cc1cc(S(=O)(=O)NCc2ccccn2)cnc1-c1ccc2c(c1)CC[C@H](C)N2C(=O)c1ccc(O)cc1O
IC50 [1]: 10 nM

O=C(c1ccc(O)cc1O)N1c2ccccc2CCC1CNC(=O)C(F)(F)F (stereo not given)
IC50 [1]: 100 nM

COC(=O)c1ccc2c(c1)CCCN2C(=O)c1ccc(O)cc1O
IC50 [1]: 1000 nM

C[C@H]1CCc2cc(F)ccc2N1C(=O)c1cc(Cl)c(O)cc1O
IC50 [1]: 100 nM

C[C@H]1CCc2cc(C(=O)N(C)Cc3cccc4ccccc34)ccc2N1C(=O)c1ccc(O)cc1O
IC50 [1]: 100 nM
IC50 [2]: 1 µM

O=C(c1ccc(O)cc1O)N1c2ccccc2CCC1c1ccco1 (stereo not given)
IC50 [1]: 1000 nM

O=C(c1ccc(O)cc1O)N1c2ccccc2CCC1c1cccnc1 (stereo not given)
IC50 [1]: 100 nM

Cc1nc(C(F)(F)F)nc(-c2ccc3c(c2)CC[C@H](C)N3C(=O)c2ccc(O)cc2O)c1C
IC50 [1]: 100 nM
IC50 [2]: 1 µM

CC1CCc2cc(F)ccc2N1C(=O)c1cc(Cl)c(O)cc1O (stereo not given)
IC50 [1]: 100 nM

Cc1cc(N)cnc1-c1ccc2c(c1)CC[C@H](C)N2C(=O)c1ccc(O)cc1O
IC50 [1]: 10 nM
IC50 [2]: 1 µM

CCNc1ccc(-c2ccc3c(c2)CC[C@H](C)N3C(=O)c2ccc(O)cc2O)c(C)n1
IC50 [1]: 100 nM
IC50 [2]: 1 µM

Cc1cc2ccccc2nc1-c1ccc2c(c1)CC[C@H](C)N2C(=O)c1ccc(O)cc1O
IC50 [1]: 100 nM
IC50 [2]: 1 µM

Cc1cc(S(=O)(=O)N2CCN(C)CC2)cnc1-c1ccc2c(c1)CC[C@H](C)N2C(=O)c1ccc(O)cc1O
IC50 [1]: 10 nM

Cc1cc(S(=O)(=O)NCc2ccncc2)cnc1-c1ccc2c(c1)CC[C@H](C)N2C(=O)c1ccc(O)cc1O
IC50 [1]: 10 nM
IC50 [2]: 1 µM

C[C@H]1CCc2cc(-c3ccnc4ccccc34)ccc2N1C(=O)c1ccc(O)cc1O
IC50 [1]: 100 nM
IC50 [2]: 1 µM

O=C(c1ccc(O)cc1O)N1c2ccc(-c3ncnc4cccc(F)c34)cc2CCC1c1cccnc1 (stereo not given)
IC50 [3]: 10 nM

Cc1cnc(Cl)nc1-c1ccc2c(c1)CC[C@H](C)N2C(=O)c1cc(F)c(O)cc1O
IC50 [1]: 10 nM
IC50 [2]: 1 µM

O=C(c1ccc(O)cc1O)N1c2ccccc2CCC1c1cccs1 (stereo not given)
IC50 [1]: 1000 nM

CC(C)C(=O)Nc1ccc2c(c1)CCCN2C(=O)c1ccc(O)cc1O
IC50 [1]: 1000 nM

Cc1n[nH]c(C)c1C1CCc2ccccc2N1C(=O)c1ccc(O)cc1O (stereo not given)
IC50 [1]: 1000 nM

C[C@H]1CCc2cc(C(=O)N(C)Cc3cccc4cnccc34)ccc2N1C(=O)c1ccc(O)cc1O
IC50 [1]: 10 nM
IC50 [2]: 1 µM

Cc1cc(S(=O)(=O)N2CC(F)(F)C2)cnc1-c1ccc2c(c1)CCC(c1cccnc1)N2C(=O)c1ccc(O)cc1O (stereo not given)
IC50 [3]: 10 nM

Cc1cc(S(=O)(=O)NCc2cccs2)cnc1-c1ccc2c(c1)CC[C@H](C)N2C(=O)c1ccc(O)cc1O
IC50 [1]: 10 nM
IC50 [2]: 1 µM

O=C(c1ccc(O)cc1O)N1c2ccc(-c3nc(Cl)nc4[nH]ccc34)cc2CCC1c1cccnc1 (stereo not given)
IC50 [1]: 100 nM
IC50 [2]: 1 µM

C[C@H]1CCc2cc(-c3nc(Cl)nc4ccsc34)ccc2N1C(=O)c1ccc(O)cc1O
IC50 [1]: 1000 nM
IC50 [2]: 1 µM

CS(=O)(=O)NCC1CCc2ccccc2N1C(=O)c1ccc(O)cc1O (stereo not given)
IC50 [1]: 100 nM

Cc1cnc(Cl)nc1-c1ccc2c(c1)CCC(C)N2C(=O)c1cc(Cl)c(O)cc1O (stereo not given)
IC50 [1]: 100 nM
IC50 [2]: 1 µM

O=C(c1cc(Cl)c(O)cc1O)N1c2ccccc2CC[C@@H]1c1cccnc1
IC50 [3]: 100 nM

O=C(O)c1ccc2c(c1)CCCN2C(=O)c1ccc(O)cc1O
IC50 [1]: 10000 nM

C[C@H]1CCc2cc(C(=O)N(C)Cc3cccs3)ccc2N1C(=O)c1ccc(O)cc1O
IC50 [1]: 10 nM
IC50 [2]: 10 µM

Cc1cncnc1-c1ccc2c(c1)CCC(c1cccnc1)N2C(=O)c1ccc(O)cc1O (stereo not given)
IC50 [1]: 10 nM

O=C(c1ccc(O)cc1O)N1c2ccc(-c3ncnc4[nH]ccc34)cc2CCC1c1cccnc1 (stereo not given)
IC50 [1]: 10 nM

CC(=O)N1CCN(S(=O)(=O)c2cnc(-c3ccc4c(c3)CC[C@H](C)N4C(=O)c3ccc(O)cc3O)c(C)c2)CC1
IC50 [1]: 10 nM

Cc1csc2ncnc(-c3ccc4c(c3)CC[C@H](C)N4C(=O)c3ccc(O)cc3O)c12
IC50 [1]: 100 nM
IC50 [2]: 1 µM

Cc1cnc(Cl)nc1-c1ccc2c(c1)CCC(c1cccnc1)N2C(=O)c1ccc(O)cc1O (stereo not given)
IC50 [1]: 10 nM

O=C(c1ccc(O)cc1O)N1c2ccc(-c3nc4ccc(Cl)cc4cc3CO)cc2CCC1c1cccnc1 (stereo not given)
IC50 [1]: 100 nM

Cc1sc2ncnc(-c3ccc4c(c3)CC[C@H](C)N4C(=O)c3ccc(O)cc3O)c2c1C
IC50 [1]: 100 nM
IC50 [2]: 10 µM

C[C@@H]1CCc2cc(F)ccc2N1C(=O)c1ccc(O)cc1O
IC50 [1]: 1000 nM

CSc1nc(-c2ccc3c(c2)CC[C@H](C)N3C(=O)c2ccc(O)cc2O)c2cc[nH]c2n1
IC50 [1]: 1000 nM
IC50 [2]: 1 µM

COc1ccc(CN(C)C(=O)c2ccc3c(c2)CC[C@H](C)N3C(=O)c2ccc(O)cc2O)cc1
IC50 [1]: 100 nM
IC50 [2]: 1 µM

C[C@H]1CCc2cc(C(=O)N(C)Cc3cccnc3)ccc2N1C(=O)c1ccc(O)cc1O
IC50 [1]: 100 nM

CC1CCc2cc(C(=O)N(C)CC(F)(F)F)ccc2N1C(=O)c1ccc(O)cc1O (stereo not given)
IC50 [1]: 100 nM

C[C@H]1CCc2cc(C(=O)N(C)Cc3ccc4nccnc4c3)ccc2N1C(=O)c1ccc(O)cc1O
IC50 [1]: 10 nM
IC50 [2]: 1 µM

Cc1cc(S(=O)(=O)N2CCC(F)(F)CC2)cnc1-c1ccc2c(c1)CC[C@H](C)N2C(=O)c1ccc(O)cc1O
IC50 [1]: 100 nM

C[C@H]1CCc2ccccc2N1C(=O)c1ccc(O)cc1O
IC50 [1]: 100 nM

O=C(c1ccc(O)cc1O)N1c2ccccc2CCC1C(F)(F)F (stereo not given)
IC50 [3]: 100 nM

O=C(c1ccc(O)cc1O)N1c2ccccc2CCC1c1ccccn1 (stereo not given)
IC50 [1]: 1000 nM

COCCNS(=O)(=O)c1cnc(-c2ccc3c(c2)CC[C@H](C)N3C(=O)c2ccc(O)cc2O)c(C)c1
IC50 [1]: 100 nM
IC50 [2]: 10 µM

CCN(CC)S(=O)(=O)c1ccc2c(c1)CCC(C)N2C(=O)c1ccc(O)cc1O (stereo not given)
IC50 [1]: 100 nM

Cc1cc(S(=O)(=O)NCC2CC2)cnc1-c1ccc2c(c1)CC[C@H](C)N2C(=O)c1ccc(O)cc1O
IC50 [1]: 100 nM
IC50 [2]: 1 µM

O=C(c1ccc(O)cc1O)N1c2ccccc2CCC1c1ccn[nH]1 (stereo not given)
IC50 [1]: 100 nM

O=C(c1ccc(O)cc1O)N1c2ccccc2CC[C@@H]1c1cccnc1
IC50 [1]: 100 nM

O=C(c1ccc2c(c1)CCCN2C(=O)c1ccc(O)cc1O)N1Cc2ccccc2C1
IC50 [1]: 1000 nM

CCc1nccnc1-c1ccc2c(c1)CCC(c1cccnc1)N2C(=O)c1ccc(O)cc1O (stereo not given)
IC50 [1]: 10 nM

COCCOc1ncc(C)c(-c2ccc3c(c2)CC[C@H](C)N3C(=O)c2ccc(O)cc2O)n1
IC50 [1]: 100 nM
IC50 [2]: 1 µM

CC1CCc2ccccc2N1C(=O)c1ccc(O)cc1O (stereo not given)
IC50 [1]: 100 nM

C[C@H]1CCc2cc(C(=O)N(C)Cc3ccc4ccccc4n3)ccc2N1C(=O)c1ccc(O)cc1O
IC50 [1]: 100 nM
IC50 [2]: 1 µM

C[C@H]1CCc2cc(-c3ncnc4cccc(F)c34)ccc2N1C(=O)c1ccc(O)cc1O
IC50 [1]: 10 nM
IC50 [2]: 1 µM

Cc1cccnc1-c1ccc2c(c1)CCC(CNS(C)(=O)=O)N2C(=O)c1ccc(O)cc1O (stereo not given)
IC50 [1]: 100 nM

Cc1cc2ccc(F)cc2nc1-c1ccc2c(c1)CCC(c1cccnc1)N2C(=O)c1ccc(O)cc1O (stereo not given)
IC50 [1]: 10 nM

Cc1cccnc1-c1ccc2c(c1)CCC(c1cccnc1)N2C(=O)c1ccc(O)cc1O (stereo not given)
IC50 [1]: 10 nM
